Results published in ChEMBL document CHEMBL1201862, “PubChem BioAssay data set” (2004).
Counter-ions that a name gives are not always drawn. The source made the active and inactive calls.

Tests used:
[1] = molecular target: T1, Endoribonuclease toxin MazF (Escherichia coli K-12, UniProt P0AE70); assay: MazF toxin RNase activators, dose response, biochemical, fluorescence, single-stranded RNA substrate, uHTS hits (AID 588481); type: functional
T1 sequence (P0AE70 whole entry): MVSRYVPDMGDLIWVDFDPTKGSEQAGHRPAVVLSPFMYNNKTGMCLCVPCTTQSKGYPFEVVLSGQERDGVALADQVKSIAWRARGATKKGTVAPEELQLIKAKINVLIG

[2] = molecular target: T1, Endoribonuclease toxin MazF; assay: fluorescent RNA oligo signal without MazF, dose response, counter-screen for MazEF activator project, biochemical, fluorescence, single-stranded RNase substrate (AID 588502); type: functional
Cytochrome P450 3A4 = Cytochrome P450 3A4 (Homo sapiens, UniProt P08684);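 note: CYP3A4 tested as one member of a cytochrome P450 panel screen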
Chain of Cytochrome P450 3A4 (P08684 whole entry): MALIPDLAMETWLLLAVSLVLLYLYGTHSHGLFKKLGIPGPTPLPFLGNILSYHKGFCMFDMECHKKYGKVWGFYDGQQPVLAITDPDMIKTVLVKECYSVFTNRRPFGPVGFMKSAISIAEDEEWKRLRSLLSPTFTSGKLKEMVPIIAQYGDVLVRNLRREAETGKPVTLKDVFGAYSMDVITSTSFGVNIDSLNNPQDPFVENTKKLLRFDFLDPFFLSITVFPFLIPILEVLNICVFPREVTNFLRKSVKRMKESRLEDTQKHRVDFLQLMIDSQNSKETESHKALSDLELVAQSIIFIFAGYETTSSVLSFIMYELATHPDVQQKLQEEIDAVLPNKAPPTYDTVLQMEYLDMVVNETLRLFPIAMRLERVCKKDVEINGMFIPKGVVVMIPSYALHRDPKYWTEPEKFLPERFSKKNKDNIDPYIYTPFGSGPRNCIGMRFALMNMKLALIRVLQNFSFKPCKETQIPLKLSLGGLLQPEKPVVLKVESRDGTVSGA

Vero [3] = assay: cells; type: functional, cell-based; conditions: Chlorocebus sabaeus
Vero [4] = assay: cells; type: functional; conditions: Chlorocebus sabaeus
[5] = HEp-2 cell cytotoxicity, dose response, cytotoxicity control for RSV inhibitor project, HTS (AID 2410); type: functional; conditions: human respiratory syncytial virus
[6] = molecular target: T2, Type-1 angiotensin II receptor (Homo sapiens, UniProt P30556); assay: AT1 receptor antagonists, dose response, selectivity assay for APJ receptor antagonist project, cell-based, uHTS hits (AID 463214); type: functional;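 note: antagonist potency against angiotensin II stimulated AT1 response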
T2 sequence (P30556 whole entry): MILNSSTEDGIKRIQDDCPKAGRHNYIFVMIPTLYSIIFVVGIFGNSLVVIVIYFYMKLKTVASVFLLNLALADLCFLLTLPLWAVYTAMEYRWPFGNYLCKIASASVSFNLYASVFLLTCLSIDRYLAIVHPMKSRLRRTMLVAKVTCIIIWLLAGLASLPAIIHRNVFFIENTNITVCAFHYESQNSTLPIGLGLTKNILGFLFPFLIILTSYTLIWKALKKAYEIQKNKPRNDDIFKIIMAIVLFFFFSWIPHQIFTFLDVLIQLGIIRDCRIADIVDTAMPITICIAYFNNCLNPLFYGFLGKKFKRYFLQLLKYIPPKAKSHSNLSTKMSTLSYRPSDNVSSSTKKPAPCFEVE

Beta-galactosidase = Beta-galactosidase (Escherichia coli, UniProt Q8VNN2); assay: PubChem AID 485352; type: functional
Chain of Beta-galactosidase (Q8VNN2 whole entry): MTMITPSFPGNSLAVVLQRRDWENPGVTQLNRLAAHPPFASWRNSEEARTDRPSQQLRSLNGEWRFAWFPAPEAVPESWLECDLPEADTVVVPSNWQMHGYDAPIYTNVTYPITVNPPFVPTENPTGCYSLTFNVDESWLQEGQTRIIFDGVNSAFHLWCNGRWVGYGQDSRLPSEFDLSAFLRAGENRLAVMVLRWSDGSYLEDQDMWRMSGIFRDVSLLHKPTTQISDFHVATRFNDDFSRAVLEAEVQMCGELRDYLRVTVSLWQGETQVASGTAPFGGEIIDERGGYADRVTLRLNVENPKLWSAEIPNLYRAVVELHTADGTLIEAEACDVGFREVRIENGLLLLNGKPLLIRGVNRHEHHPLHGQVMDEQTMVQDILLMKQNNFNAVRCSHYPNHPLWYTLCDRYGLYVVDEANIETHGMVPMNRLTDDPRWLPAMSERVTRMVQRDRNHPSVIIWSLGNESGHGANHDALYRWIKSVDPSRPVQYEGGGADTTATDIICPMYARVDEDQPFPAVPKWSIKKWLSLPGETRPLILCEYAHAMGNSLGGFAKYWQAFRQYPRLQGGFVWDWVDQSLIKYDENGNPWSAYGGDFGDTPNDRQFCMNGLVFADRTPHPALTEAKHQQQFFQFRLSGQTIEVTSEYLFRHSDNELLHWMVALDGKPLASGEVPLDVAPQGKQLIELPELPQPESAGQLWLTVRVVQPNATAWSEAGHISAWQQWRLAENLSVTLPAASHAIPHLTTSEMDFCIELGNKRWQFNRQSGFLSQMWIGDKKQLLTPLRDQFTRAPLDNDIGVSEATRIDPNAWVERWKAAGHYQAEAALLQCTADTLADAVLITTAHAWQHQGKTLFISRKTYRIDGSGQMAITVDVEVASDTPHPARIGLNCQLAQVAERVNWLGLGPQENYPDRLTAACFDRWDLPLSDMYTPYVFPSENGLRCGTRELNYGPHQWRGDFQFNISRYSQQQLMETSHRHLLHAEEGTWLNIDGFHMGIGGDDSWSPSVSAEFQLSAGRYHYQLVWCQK

[7] = test system: Streptococcus sp. 'group A'; assay: growth inhibition of control SK(-) GAS strain, dose response, counter-screen for streptokinase expression inhibitor project, luminescence, kanamycin, BacTiterGlo, confirmation (AID 1900); type: functional, organism-based
Streptococcus = assay: Group A Streptococcus viability loss, dose response, counter-screen for streptokinase expression inhibitor project, luminescence, BacTiterGlo (AID 1915); type: functional, organism-based;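 note: potency for reduction of bacterial viability or growth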
[8] = inhibitors of SNCA 5'UTR-driven reporter translation, confirmation, H4 neuroglioma cells, luminescence (AID 1988); type: functional, cell-based
[9] = molecular target: T3, Replicative DNA helicase DnaB (Mycobacterium tuberculosis, UniProt P9WMR3); assay: DnaB intein splicing inhibitors, dose response, biochemical, cell-free fluorescence (AID 449749); type: functional
T3 sequence (P9WMR3 whole entry): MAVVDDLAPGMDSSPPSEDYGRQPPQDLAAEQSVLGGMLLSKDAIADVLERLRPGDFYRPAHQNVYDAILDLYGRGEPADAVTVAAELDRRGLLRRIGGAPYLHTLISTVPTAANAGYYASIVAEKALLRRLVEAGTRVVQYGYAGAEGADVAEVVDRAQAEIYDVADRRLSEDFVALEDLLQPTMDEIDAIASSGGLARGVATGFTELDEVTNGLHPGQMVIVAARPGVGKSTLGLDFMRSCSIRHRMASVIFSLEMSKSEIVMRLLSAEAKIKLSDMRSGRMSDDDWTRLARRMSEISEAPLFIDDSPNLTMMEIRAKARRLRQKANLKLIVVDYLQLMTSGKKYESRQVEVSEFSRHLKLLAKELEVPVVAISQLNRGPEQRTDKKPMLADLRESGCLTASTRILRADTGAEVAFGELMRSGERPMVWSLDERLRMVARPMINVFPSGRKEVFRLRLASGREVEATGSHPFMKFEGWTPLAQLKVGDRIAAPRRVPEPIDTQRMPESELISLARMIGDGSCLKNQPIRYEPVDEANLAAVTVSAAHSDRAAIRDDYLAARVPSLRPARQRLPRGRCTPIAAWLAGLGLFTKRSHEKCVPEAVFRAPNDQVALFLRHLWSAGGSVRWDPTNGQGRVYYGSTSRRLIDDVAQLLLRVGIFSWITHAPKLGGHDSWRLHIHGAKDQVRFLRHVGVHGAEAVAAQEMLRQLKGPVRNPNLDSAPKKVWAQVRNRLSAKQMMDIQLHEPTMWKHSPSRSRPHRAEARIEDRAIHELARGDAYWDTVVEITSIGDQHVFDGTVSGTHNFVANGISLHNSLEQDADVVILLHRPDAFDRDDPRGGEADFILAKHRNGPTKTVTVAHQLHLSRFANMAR

[10] = Luminescence Cell-Based Dose Response HTS to Identify Inhibitors of 5'UTR Stem-Loop Driven Prion Protein mRNA Translation in H4 Neuroglioblastoma Cells. [Related pubchem assays: 1827 (Project Summary), 1813 (Primary HTS)]; type: functional
[11] = molecular target: T4, Microphthalmia-associated transcription factor (Homo sapiens, UniProt O75030); assay: TRPM1 promoter luciferase signal decrease, dose response, MITF inhibitor project, cell-based, SK-MEL-5, cherry-picked, set 3 (AID 493073); type: functional
T4 sequence (O75030 whole entry): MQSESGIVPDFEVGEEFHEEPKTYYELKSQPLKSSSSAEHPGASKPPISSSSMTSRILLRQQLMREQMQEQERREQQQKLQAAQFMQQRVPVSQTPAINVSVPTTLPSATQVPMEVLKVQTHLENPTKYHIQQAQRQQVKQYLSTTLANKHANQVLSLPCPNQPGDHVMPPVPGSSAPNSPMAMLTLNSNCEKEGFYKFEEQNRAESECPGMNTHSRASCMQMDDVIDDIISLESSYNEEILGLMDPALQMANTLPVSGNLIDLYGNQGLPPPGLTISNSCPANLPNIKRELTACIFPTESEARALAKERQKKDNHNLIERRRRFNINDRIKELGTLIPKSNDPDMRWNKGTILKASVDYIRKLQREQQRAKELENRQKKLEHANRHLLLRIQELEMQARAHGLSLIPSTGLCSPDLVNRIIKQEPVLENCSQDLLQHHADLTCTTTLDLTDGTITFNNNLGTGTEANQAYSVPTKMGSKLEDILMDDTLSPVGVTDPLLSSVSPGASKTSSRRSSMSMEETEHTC

[12] = inhibitors of firefly luciferase expression or activity, dose response, H4 neuroglioma cells, luminescence (AID 1990); type: functional, cell-based
Protein RecA = molecular target: T5, Protein RecA (Mycobacterium tuberculosis, UniProt P9WHJ3); assay: Fluorescence Cell-Free Homogeneous Dose Retest to Identify Inhibitors of RecA-Intein Splicing Activity. [Related pubchem assays (depositor defined):AID2097, AID2223, AID489010, AID492950]; type: functional
T5 sequence (P9WHJ3 whole entry): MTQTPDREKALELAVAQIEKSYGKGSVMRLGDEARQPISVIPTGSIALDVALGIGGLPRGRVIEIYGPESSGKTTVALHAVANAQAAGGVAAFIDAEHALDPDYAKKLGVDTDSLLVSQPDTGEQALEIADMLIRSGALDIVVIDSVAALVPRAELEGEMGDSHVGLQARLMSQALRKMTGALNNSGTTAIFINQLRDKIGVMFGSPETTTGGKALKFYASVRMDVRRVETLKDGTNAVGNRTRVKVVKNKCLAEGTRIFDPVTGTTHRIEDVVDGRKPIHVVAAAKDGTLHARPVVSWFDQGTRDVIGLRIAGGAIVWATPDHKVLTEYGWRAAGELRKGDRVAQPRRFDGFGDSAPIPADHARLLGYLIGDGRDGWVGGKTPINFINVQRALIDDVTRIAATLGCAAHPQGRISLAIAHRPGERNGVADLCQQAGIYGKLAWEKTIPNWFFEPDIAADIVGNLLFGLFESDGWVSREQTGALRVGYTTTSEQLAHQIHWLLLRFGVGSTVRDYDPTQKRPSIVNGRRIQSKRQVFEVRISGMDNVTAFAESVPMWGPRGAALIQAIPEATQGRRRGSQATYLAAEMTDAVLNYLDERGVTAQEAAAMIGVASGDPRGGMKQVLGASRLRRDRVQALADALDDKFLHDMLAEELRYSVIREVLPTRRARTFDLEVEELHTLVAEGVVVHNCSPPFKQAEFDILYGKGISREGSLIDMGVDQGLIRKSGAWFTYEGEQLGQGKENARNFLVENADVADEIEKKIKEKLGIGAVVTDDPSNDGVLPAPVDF

Phospholipase A2 = Phospholipase A2 (Homo sapiens, UniProt P04054); type: functional;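 note: confirmatory dose-response counterscreen on phospholipase A2, testing hits that came from an ultra-high-throughput screen for ATG4B inhibitors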
Chain of Phospholipase A2 (P04054 whole entry): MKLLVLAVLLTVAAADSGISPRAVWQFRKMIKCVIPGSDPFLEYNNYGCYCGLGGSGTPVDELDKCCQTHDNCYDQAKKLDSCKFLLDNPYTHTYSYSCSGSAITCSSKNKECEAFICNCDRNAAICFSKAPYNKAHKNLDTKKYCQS

Vero [13] = assay: Vero cell cytotoxicity, cytotoxicity control for flavivirus capping enzyme inhibitors (AID 588742); type: functional; conditions: Chlorocebus sabaeus
Genome polyprotein = Genome polyprotein (dengue virus type 2, UniProt P29990); assay: Dengue-2 NS5 methyltransferase inhibitors, primary screen, biochemical, confirmation dose response (AID 588689); type: functional
Chain of Genome polyprotein (P29990 2492-3391 limits assumed): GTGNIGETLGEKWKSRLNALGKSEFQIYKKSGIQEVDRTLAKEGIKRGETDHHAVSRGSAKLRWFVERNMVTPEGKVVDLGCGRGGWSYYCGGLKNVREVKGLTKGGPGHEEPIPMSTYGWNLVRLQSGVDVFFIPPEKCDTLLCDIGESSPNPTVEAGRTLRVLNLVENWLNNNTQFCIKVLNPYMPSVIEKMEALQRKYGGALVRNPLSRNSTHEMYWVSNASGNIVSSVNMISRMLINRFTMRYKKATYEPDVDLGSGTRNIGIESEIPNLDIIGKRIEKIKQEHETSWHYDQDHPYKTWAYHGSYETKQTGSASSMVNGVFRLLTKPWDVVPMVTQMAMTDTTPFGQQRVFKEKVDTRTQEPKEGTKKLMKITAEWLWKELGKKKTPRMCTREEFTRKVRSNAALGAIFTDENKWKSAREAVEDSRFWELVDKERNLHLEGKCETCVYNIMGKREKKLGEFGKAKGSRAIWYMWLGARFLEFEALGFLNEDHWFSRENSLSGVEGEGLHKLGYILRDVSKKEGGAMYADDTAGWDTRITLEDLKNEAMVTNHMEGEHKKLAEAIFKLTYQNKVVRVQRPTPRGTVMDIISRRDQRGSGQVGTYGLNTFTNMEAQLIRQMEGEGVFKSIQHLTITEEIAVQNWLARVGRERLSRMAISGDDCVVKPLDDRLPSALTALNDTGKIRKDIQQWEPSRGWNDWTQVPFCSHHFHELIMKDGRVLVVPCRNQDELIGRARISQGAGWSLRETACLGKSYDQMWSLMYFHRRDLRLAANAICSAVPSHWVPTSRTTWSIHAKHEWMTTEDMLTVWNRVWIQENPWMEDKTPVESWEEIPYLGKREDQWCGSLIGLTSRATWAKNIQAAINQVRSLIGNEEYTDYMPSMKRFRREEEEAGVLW

Cysteine protease ATG4B = molecular target: T6, Cysteine protease ATG4B (Homo sapiens, UniProt Q9Y4P1); type: functional;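 note: Fluorescence-based dose-response confirmation assay measuring inhibition of ATG4B activity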
T6 sequence (Q9Y4P1 whole entry): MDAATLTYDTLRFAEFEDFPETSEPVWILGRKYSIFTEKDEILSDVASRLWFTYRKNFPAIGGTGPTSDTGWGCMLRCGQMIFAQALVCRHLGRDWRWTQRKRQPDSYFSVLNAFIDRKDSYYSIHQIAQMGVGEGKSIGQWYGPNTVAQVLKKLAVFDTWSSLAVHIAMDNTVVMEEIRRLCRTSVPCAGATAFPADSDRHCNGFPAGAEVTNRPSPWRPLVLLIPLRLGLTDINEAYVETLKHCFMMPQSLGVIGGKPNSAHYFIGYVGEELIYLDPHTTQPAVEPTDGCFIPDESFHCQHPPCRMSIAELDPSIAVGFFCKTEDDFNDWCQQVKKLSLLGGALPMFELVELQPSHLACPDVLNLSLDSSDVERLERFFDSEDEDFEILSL

[14] = molecular target: T7, Ubiquitin-conjugating enzyme E2 N (Homo sapiens, UniProt P61088); type: functional;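 note: Dose-response confirmation in a TR-FRET assay detecting UBC13-driven polyubiquitin chain formation, inhibition measured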
T7 sequence (P61088 whole entry): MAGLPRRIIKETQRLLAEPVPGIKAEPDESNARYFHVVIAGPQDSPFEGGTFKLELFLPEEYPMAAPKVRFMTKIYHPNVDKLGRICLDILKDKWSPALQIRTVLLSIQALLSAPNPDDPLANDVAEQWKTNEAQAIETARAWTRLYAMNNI

[15] = molecular target: Voltage-gated inwardly rectifying potassium channel KCNH2 (Homo sapiens, UniProt Q12809); conditions: Potency;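 note: confirmatory quantitative high-throughput screen measuring inhibition of hERG channel activity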
Chain of Voltage-gated inwardly rectifying potassium channel KCNH2 (Q12809 whole entry): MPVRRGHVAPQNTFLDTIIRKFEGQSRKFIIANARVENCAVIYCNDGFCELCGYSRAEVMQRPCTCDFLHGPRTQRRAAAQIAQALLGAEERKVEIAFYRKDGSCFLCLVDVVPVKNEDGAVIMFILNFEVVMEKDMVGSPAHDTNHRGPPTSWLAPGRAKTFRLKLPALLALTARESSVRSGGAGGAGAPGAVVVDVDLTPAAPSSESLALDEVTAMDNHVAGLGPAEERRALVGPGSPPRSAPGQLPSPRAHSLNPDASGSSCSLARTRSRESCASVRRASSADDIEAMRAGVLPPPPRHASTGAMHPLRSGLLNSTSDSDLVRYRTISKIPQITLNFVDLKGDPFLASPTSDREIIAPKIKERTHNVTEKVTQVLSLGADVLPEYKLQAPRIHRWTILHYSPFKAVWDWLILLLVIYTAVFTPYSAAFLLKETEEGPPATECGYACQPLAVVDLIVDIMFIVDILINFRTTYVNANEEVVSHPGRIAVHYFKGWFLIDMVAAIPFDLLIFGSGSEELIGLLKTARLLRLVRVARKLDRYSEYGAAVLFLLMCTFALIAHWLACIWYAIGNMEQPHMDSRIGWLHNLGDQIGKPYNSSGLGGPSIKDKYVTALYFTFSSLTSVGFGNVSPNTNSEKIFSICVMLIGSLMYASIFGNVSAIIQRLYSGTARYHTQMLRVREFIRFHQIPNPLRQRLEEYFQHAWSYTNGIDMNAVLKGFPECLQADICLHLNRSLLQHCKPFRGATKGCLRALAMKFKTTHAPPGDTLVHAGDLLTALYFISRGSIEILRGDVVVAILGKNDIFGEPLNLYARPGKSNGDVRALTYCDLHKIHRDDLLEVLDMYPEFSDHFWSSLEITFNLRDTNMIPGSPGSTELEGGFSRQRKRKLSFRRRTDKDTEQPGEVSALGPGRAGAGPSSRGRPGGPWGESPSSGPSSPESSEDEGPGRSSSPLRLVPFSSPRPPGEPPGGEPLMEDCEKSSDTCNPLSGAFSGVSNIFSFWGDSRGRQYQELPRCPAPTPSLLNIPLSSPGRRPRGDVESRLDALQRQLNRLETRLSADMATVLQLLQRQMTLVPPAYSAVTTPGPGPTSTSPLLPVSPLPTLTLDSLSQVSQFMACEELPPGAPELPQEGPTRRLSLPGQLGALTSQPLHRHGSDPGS

With CNc1ccc(/C=C(\C#N)C(=O)Nc2ccccn2)cc1[N+](=O)[O-] the EC50 [1] was > 99 µM (inactive) and the EC50 [2] was 39.2 µM (inactive).

For COC(=O)CSc1nc2cc(OC)ccc2cc1C#N, the EC50 [1] was > 99 µM (inactive) and the EC50 [2] was 48.4 µM (inactive).

In the case of CCOC(=O)c1c(-c2cccc(C)c2)csc1NC(=O)c1c(-c2ccccc2)noc1C, the IC50 (cells) is reported as 9.89 µM (active), the AC50 (Cytochrome P450 3A4) is reported as 5.62 µM (inconclusive) and the IC50 (Vero [3]) is reported as 1.43 µM (active). For the same compound, the CC50 (Vero [4]) was > 25 µM (active) and the CC50 [5] was 5.17 µM (active).

In the case of O=C(CN1c2ccccc2Sc2ccccc21)NNC(=S)Nc1ccc(Cl)cc1, the IC50 [6] is reported as > 40 µM (not active), the EC50 (Beta-galactosidase) is reported as > 40 µM (inactive) and the EC50 [7] is reported as 3.35 µM (active). The EC50 (Streptococcus) was 3.6 µM (active).

With COc1ccc(/C=C/C(=O)NC(=S)NNC(=O)c2c(-c3ccccc3)noc2C)cc1 the IC50 [6] was 35.5 µM (not active) and the EC50 (Beta-galactosidase) was > 40 µM (inactive).

With O=C1c2ccccc2C(=O)c2c1ncn2-c1ccccc1 the EC50 [8] was 9.51 µM (active), the AC50 [9] was 57.3 µM (active) and the EC50 [10] was 15.6 µM (active). The AC50 [11] was 7.33 µM (active), the EC50 [12] was 13.1 µM (active) and the EC50 (Protein RecA) was 229 µM (active).

With Cc1ccccc1S(=O)(=O)N1[C@@H](c2ccc(Br)cc2)C(C(=O)O)=CC[C@H]1c1ccc(Cl)cc1 the IC50 (Phospholipase A2) was 6.72 µM (active), the CC50 (Vero [13]) was > 40 µM (active) and the IC50 (Genome polyprotein) was 41.4 µM (active). For the same compound, the IC50 (Cysteine protease ATG4B) was 7.71 µM (active).

In the case of CN(C)c1ccc(C=C2C(=O)NC(=S)NC2=O)cc1, the CC50 (Vero [13]) is reported as 31.4 µM (active), the IC50 (Vero [3]) is reported as > 25 µM (active) and the CC50 (Vero [4]) is reported as 22.2 µM (active).

With CC1(C)Oc2ccc3ccc(=O)oc3c2C(/C=N/NC(N)=O)=C1O the IC50 [6] was > 40 µM (not active) and the EC50 (Beta-galactosidase) was > 40 µM (inactive).

In the case of N=c1n(CC(=O)c2ccc(Br)cc2)c2ccccc2n1Cc1ccccc1, the IC50 [14] is reported as > 20 µM (inactive) and the AC50 [11] is reported as 6.41 µM (active).

In the case of CCOc1ccc2nc(N)sc2c1, the AC50 [15] is reported as 28.2 µM (inconclusive).

With c1ccc2c(c1)-c1cccc3cccc-2c13 [FLUORANTHENE] the AC50 [15] was 12.6 µM (inconclusive).

In the case of CN1CCC(=C2c3ccccc3CC(=O)c3sccc32)CC1 [KETOTIFEN FUMARATE], the AC50 [15] is reported as 22.4 µM (inconclusive).
